Assays:
Type in all cases: in vivo, human
adults with ADHD [1] = assay: Study A: ABT-894 Adult ADHD Dose-Ranging crossover clinical study, efficacy rating scales
Procedure: (§1) A clinical study (Study A) was conducted to assess the safety and efficacy of ABT-894 compared to placebo in adults with ADHD and to evaluate the dose-response relationship.
A total of 243 subjects aged 18 to 60 years old meeting DSM-IV-TR criteria for ADHD were randomized across the 5 dose groups. Male or female patients were included. […] The disposition of the study subjects is further discussed with the study results below.
(§2) Subjects in each dose group received, in random order, both ABT-894 and placebo according to a 2×2 crossover design. Each treatment period was 4 weeks separated by a 2-week washout period.
Each site was assigned to one of two cohorts (Cohort A or Cohort B) in approximately a 3:2 ratio. Subjects in Cohort A were randomized in equal proportions to one of 6 treatment sequences in 3 dose groups, and subjects in Cohort B were randomized in equal proportions to one of 4 treatment sequences in 2 dose groups, as shown in Table 1. Within each dose group subjects received either ABT-894 or atomoxetine in Period 1 and placebo in Period 2, or placebo in Period 1 and ABT-894 or atomoxetine in Period 2.
The study medication was dispensed in the form of a capsule. Each capsule contained ABT-894, atomoxetine, or placebo. The capsules were made to look identical.
The primary efficacy endpoint was the Conners' Adult ADHD Rating Scale—Investigator Rated (CAARS:Inv) Total Score (18 items) at the final evaluation of each 4-week treatment period. The CAARS:Inv was assessed at baseline and Days 7. 14. 21, and 28 of each period. Each CAARS:Inv item was rated on a 4-point scale of frequency of occurrence (0=not at all, never; 3=very much. very frequently) during the previous 7 days.
(§3) Secondary efficacy endpoints included the CAARS:Inv Inattentive and Hyperactive/Impulsive Subscale Scores, Clinical Global Impression-ADHD-Severity Scale (CGI-ADHD-S). Adult ADHD Investigator Symptom Report Scale (AISRS), including total and subscales, and the Self-rated Connors Adult ADHD Rating Scale (CAARS-Self). Health outcomes including the Adult ADHD Quality of Life Scale (AAQoL) and Work Productivity and Activity Impairment Questionnaire (WPAI) were used to evaluate the validity of these scales in this study population for use in subsequent clinical trials.
The primary analysis was performed on each dose group separately according to the Statistical Analysis Plan (SAP). The primary statistical model that was used for analyzing the primary efficacy variable, the CAARS:INV total score, and all other secondary efficacy variables was determined by a SAP specified testing procedure. The comparability between two sequences for a given dose group with respect to the difference between period-specific baselines was tested using a one-way ANCOVA with the term of treatment and the Period I baseline as the covariate at the significance level of 0.10. The equal residual effect from Period I to Period II between two different sequences for a given dose group was tested using a standard model for cross-over data analysis, Grizzle model, on the term of “sequence” at the significance level of 0.10.
After the study blind was broken, across 5 dose groups. all the tests accepted the null hypothesis that there was no statistically significant treatment effect for the differences between the period-specific baselines. The tests also accepted the null hypothesis that there was no period residual effect in any of the dose groups. Accordingly, the Grizzle model was used as the primary analysis model to analyze treatment group difference for CAARS:INV total score at Day 28 for each dose group. The Grizzle Model was carried out by SAS PROC Mixed with the terms of study center. sequence, subjects within sequence, period, treatment, as well as period-specific baselines as covariates.
The primary efficacy dataset included all subjects who completed both periods of the study (completers dataset). […]

adults with ADHD [2] = assay: Study A: patient-reported health outcomes (AAQoL, WPAI); set-up: WPAI Absenteeism (employed), Mean Diff. / WPAI Impaired Work Effectiveness (employed), Mean Diff. / AAQoL Total, Mean Diff. / WPAI Overall Activity Impairment (all), Mean Diff. / WPAI Overall Work Impairment (employed), Mean Diff.: scale not given here
Procedure: as §1, §2, §3

adults with ADHD [3] = assay: Study A: weight and vital signs; conditions: final evaluation (LOCF)
Procedure: The treatment group differences in vital signs were analyzed using a Grizzle Model similar to the model used for the efficacy analyses with the exclusion of period-specific baselines.

[4] = ABT-894 1 mg QD, day 28, completers N = 40
[5] = ABT-894 2 mg QD, day 28, completers N = 37
[6] = ABT-894 4 mg BID, day 28, completers N = 43
[7] = ABT-894 4 mg QD, day 28, completers N = 36

Clc1cc(N2C[C@@H]3CN[C@@H]3C2)cnc1Cl [ABT-894, 3-(5,6-Dichloro-pyridin-3-yl)-1S,5S-3,6-diazabicyclo[3.2.0]heptane]
AISRS Hyperactivity Score, mean difference from placebo (adults with ADHD [1]; [4]): 1.53 (−0.8, 3.8) | AISRS Inattention Score, mean difference from placebo (adults with ADHD [1]; [4]): 1.72 (−0.6, 4.1) | AISRS Total Score, mean difference from placebo (adults with ADHD [1]; [4]): 3.19 (−1.2, 7.6) | CAARS:Inv ADHD Index, mean difference from placebo (adults with ADHD [1]; [4]): 1.84 (−0.0. 3.7) | CAARS:Inv Hyperactive/Impulsive subscale score, mean difference from placebo (adults with ADHD [1]; [4]): 0.93 (−0.2, 2.0) | CAARS:Inv Inattentive subscale score, mean difference from placebo (adults with ADHD [1]; [4]): 0.94 (−1.5, 3.4) | CAARS:Inv Total Score, mean difference from placebo (adults with ADHD [1]; [4]): 2.11 (−2.4, 6.6) | CAARS:Self ADHD Index, mean difference from placebo (adults with ADHD [1]; [4]): 2.04 (0.2, 3.9) | CAARS:Self Hyperactivity Score, mean difference from placebo (adults with ADHD [1]; [4]): 0.68 (−0.4, 1.8) | CAARS:Self Impulsivity Score, mean difference from placebo (adults with ADHD [1]; [4]): 0.65 (−0.1, 1.4) | CAARS:Self Inattention/Memory Score, mean difference from placebo (adults with ADHD [1]; [4]): 0.60 (−0.5, 1.7) | CAARS:Self Problem with Self-concept Score, mean difference from placebo (adults with ADHD [1]; [4]): 0.51 (−0.2, 1.2) | CAARS:Self Total Score, mean difference from placebo (adults with ADHD [1]; [4]): 3.57 (−0.4, 7.5) | CGI-ADHD-S, mean difference from placebo (adults with ADHD [1]; [4]): 0.04 (−0.3, 0.4) | Measures of sustained attention, inhibitory control, and executive function (adults with ADHD [1]; ABT-894 2 mg QD): improved measures of sustained attention, inhibitory control, and executive function | AISRS Hyperactivity Score, mean difference from placebo (adults with ADHD [1]; [5]): −1.11 (−3.0, 0.7) | AISRS Inattention Score, mean difference from placebo (adults with ADHD [1]; [5]): −1.59 (−3.6, 0.4) | AISRS Total Score, mean difference from placebo (adults with ADHD [1]; [5]): −2.72 (−6.4, 1.0) | CAARS:Inv ADHD Index, mean difference from placebo (adults with ADHD [1]; [5]): −1.52 (−3.3, 0.2) | CAARS:Inv Hyperactive/Impulsive subscale score, mean difference from placebo (adults with ADHD [1]; [5]): −0.55 (−1.4, 0.3) | CAARS:Inv Inattentive subscale score, mean difference from placebo (adults with ADHD [1]; [5]): −1.92 (−3.8, −0.1) | CAARS:Inv Total Score, mean difference from placebo (adults with ADHD [1]; [5]): −3.18 (6.7,0.3) | CAARS:Self ADHD Index, mean difference from placebo (adults with ADHD [1]; [5]): −1.50 (−3.3, 0.3) | CAARS:Self Hyperactivity Score, mean difference from placebo (adults with ADHD [1]; [5]): −0.57 (−1.4, 0.3) | CAARS:Self Impulsivity Score, mean difference from placebo (adults with ADHD [1]; [5]): −0.48 (−1.3, 0.3) | CAARS:Self Inattention/Memory Score, mean difference from placebo (adults with ADHD [1]; [5]): −0.23 (−1.2, 0.8) | CAARS:Self Problem with Self-concept Score, mean difference from placebo (adults with ADHD [1]; [5]): −0.57 (−1.6, 0.5) | CAARS:Self Total Score, mean difference from placebo (adults with ADHD [1]; [5]): −2.64 (−6.6, 1.3) | CGI-ADHD-S, mean difference from placebo (adults with ADHD [1]; [5]): −0.31 (−0.6, 0.0) | Efficacy measures compared with atomoxetine (adults with ADHD [1]; ABT-894 4 mg BID vs atomoxetine): comparable across efficacy measures | AISRS Hyperactivity Score, mean difference from placebo (adults with ADHD [1]; [6]): −3.58 (−5.6, −1.6) | AISRS Inattention Score, mean difference from placebo (adults with ADHD [1]; [6]): −4.26 (−6.6, −1.9) | AISRS Total Score, mean difference from placebo (adults with ADHD [1]; [6]): −8.07 (−12.2, −3.9) | CAARS:Inv ADHD Index, mean difference from placebo (adults with ADHD [1]; [6]): −3.37 (−5.3. −1.4) | CAARS:Inv Hyperactive/Impulsive subscale score, mean difference from placebo (adults with ADHD [1]; [6]): −1.90 (−3.0, −0.8) | CAARS:Inv Inattentive subscale score, mean difference from placebo (adults with ADHD [1]; [6]): −4.08 (−6.4, −1.7) | CAARS:Self ADHD Index, mean difference from placebo (adults with ADHD [1]; [6]): −3.31 (−5.2, −1.4) | CAARS:Self Hyperactivity Score, mean difference from placebo (adults with ADHD [1]; [6]): −1.74 (−2.9, −0.6) | CAARS:Self Impulsivity Score, mean difference from placebo (adults with ADHD [1]; [6]): −0.70 (−1.4, −0.0) | CAARS:Self Inattention/Memory Score, mean difference from placebo (adults with ADHD [1]; [6]): −1.40 (−2.5, −0.3) | CAARS:Self Problem with Self-concept Score, mean difference from placebo (adults with ADHD [1]; [6]): −1.39 (−2.5, −0.3) | CAARS:Self Total Score, mean difference from placebo (adults with ADHD [1]; [6]): −7.34 (−11.6, −3.1) | CGI-ADHD-S, mean difference from placebo (adults with ADHD [1]; [6]): −0.58 (−1.0, −0.2) | AISRS Hyperactivity Score, mean difference from placebo (adults with ADHD [1]; [7]): −0.81 (−2.6, 1.0) | AISRS Inattention Score, mean difference from placebo (adults with ADHD [1]; [7]): 0.81 (−1.2, 2.8) | AISRS Total Score, mean difference from placebo (adults with ADHD [1]; [7]): −0.13 (−3.6, 3.4) | CAARS:Inv ADHD Index, mean difference from placebo (adults with ADHD [1]; [7]): −0.12 (−1.8, 1.5) | CAARS:Inv Hyperactive/Impulsive subscale score, mean difference from placebo (adults with ADHD [1]; [7]): −1.07 (−2.1, −0.0) | CAARS:Inv Inattentive subscale score, mean difference from placebo (adults with ADHD [1]; [7]): 0.60 (−1.5, 2.7) | CAARS:Inv Total Score, mean difference from placebo (adults with ADHD [1]; [7]): 0.23 (−3.2, 3.7) | CAARS:Self ADHD Index, mean difference from placebo (adults with ADHD [1]; [7]): −0.19 (−1.9, 1.5) | CAARS:Self Hyperactivity Score, mean difference from placebo (adults with ADHD [1]; [7]): −0.78 (−1.8, 0.2) | CAARS:Self Impulsivity Score, mean difference from placebo (adults with ADHD [1]; [7]): −0.02 (−0.9, 0.9) | CAARS:Self Inattention/Memory Score, mean difference from placebo (adults with ADHD [1]; [7]): 0.11 (−0.9, 1.2) | CAARS:Self Problem with Self-concept Score, mean difference from placebo (adults with ADHD [1]; [7]): 0.33 (−0.7, 1.4) | CAARS:Self Total Score, mean difference from placebo (adults with ADHD [1]; [7]): −1.13 (−5.2, 2.9) | CGI-ADHD-S, mean difference from placebo (adults with ADHD [1]; [7]): −0.06 (−0.3, 0.2) | Efficacy in the treatment of the core symptoms of ADHD (adults with ADHD [1]; human patients, compared to placebo): statistically significant efficacy compared to placebo | Measures of quality of life relative to placebo (adults with ADHD [2]; ABT-894 2 mg QD): improved measures of quality of life relative to placebo | WPAI Impaired Work Effectiveness (employed), Mean Diff. (adults with ADHD [2]; ABT-894 4 mg BID, N 22): −0.104 | WPAI Overall Work Impairment (employed), Mean Diff. (adults with ADHD [2]; ABT-894 4 mg BID, N 22): −0.093 | WPAI Overall Activity Impairment (all), Mean Diff. (adults with ADHD [2]; ABT-894 4 mg BID, N 43): −0.108 | Diastolic BP, mean difference from placebo (adults with ADHD [3]; ABT-894 1 mg QD): 0.28 mm Hg | Pulse, mean difference from placebo (adults with ADHD [3]; ABT-894 1 mg QD): −0.24 bpm | Systolic BP, mean difference from placebo (adults with ADHD [3]; ABT-894 1 mg QD): 1.36 mm Hg | Weight, mean difference from placebo (adults with ADHD [3]; ABT-894 1 mg QD): 0.48 kg | Diastolic BP, mean difference from placebo (adults with ADHD [3]; ABT-894 2 mg QD): 0.62 mm Hg | Pulse, mean difference from placebo (adults with ADHD [3]; ABT-894 2 mg QD): 0.42 bpm | Systolic BP, mean difference from placebo (adults with ADHD [3]; ABT-894 2 mg QD): 1.07 mm Hg | Weight, mean difference from placebo (adults with ADHD [3]; ABT-894 2 mg QD): 0.09 kg | Diastolic BP, mean difference from placebo (adults with ADHD [3]; ABT-894 4 mg BID): −2.21 mm Hg | Pulse, mean difference from placebo (adults with ADHD [3]; ABT-894 4 mg BID): 0.98 bpm | Systolic BP, mean difference from placebo (adults with ADHD [3]; ABT-894 4 mg BID): −0.48 mm Hg | Weight, mean difference from placebo (adults with ADHD [3]; ABT-894 4 mg BID): -0.08 kg | Diastolic BP, mean difference from placebo (adults with ADHD [3]; ABT-894 4 mg QD): 0.23 mm Hg | Pulse, mean difference from placebo (adults with ADHD [3]; ABT-894 4 mg QD): 3.14 bpm | Systolic BP, mean difference from placebo (adults with ADHD [3]; ABT-894 4 mg QD): −0.08 mm Hg | Weight, mean difference from placebo (adults with ADHD [3]; ABT-894 4 mg QD): 0.04 kg
